We go through 19 compounds from patent US20100222396A1 (Novartis AG, priority 2009, published 2010).

The target in experiment [1] is T1, human orexin 2 receptor (hOx2R) (Homo sapiens, UniProt O43614).
T1 construct: expressed in transfected cells
T1 sequence (O43614 1-444): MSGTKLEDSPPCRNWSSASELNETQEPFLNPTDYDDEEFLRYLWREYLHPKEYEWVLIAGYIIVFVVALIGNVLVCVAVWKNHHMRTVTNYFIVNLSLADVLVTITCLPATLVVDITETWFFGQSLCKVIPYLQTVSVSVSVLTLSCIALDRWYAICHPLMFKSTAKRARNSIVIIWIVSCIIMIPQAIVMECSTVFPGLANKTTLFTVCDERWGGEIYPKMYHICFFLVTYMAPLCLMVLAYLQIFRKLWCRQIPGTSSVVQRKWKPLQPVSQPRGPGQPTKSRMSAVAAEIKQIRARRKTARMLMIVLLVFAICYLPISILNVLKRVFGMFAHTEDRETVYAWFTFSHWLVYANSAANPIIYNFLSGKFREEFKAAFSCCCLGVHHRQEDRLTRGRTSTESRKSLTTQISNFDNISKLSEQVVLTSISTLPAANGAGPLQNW
In words: Calcium accumulation in cells (FLIPR), antagonism of orexin A, hOx2R. In kind it is cell-based. Conditions: for Kd: cells expressing human orexin 2 receptor, IC50 vs orexin A converted by Cheng and Prusoff correction. In a few lines:
(§1)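 Serum-starved receptor-expressing cells were loaded with Fluo-4-AM (2 μM) plus probenecid (0.1 mM) in HEPES buffer, pH 7.4, with 1% BSA, and Ca2+ fluorescence was read on FLIPR. Compounds (10^−9–10^−5 M) were added first, and orexin A was added one hour later to measure antagonism.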

Experiment [2] concerns the target T2, human orexin 1 receptor (hOx1R) (Homo sapiens, UniProt O43613).
T2 construct: expressed in transfected cells
T2 sequence (O43613 1-425): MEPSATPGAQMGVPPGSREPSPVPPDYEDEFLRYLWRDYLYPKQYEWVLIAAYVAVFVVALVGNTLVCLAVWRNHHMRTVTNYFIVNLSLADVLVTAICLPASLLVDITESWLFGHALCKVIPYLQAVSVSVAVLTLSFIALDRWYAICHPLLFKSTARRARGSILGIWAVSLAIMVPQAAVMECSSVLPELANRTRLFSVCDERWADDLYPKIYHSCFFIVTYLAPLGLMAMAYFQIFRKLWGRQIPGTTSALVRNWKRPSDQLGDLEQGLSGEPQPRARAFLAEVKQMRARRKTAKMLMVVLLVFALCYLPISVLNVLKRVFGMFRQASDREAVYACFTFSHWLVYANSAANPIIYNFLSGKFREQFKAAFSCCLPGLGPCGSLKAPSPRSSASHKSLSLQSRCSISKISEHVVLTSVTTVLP
In words: Radioligand binding assay ([125I]orexin A competition), hOx1R. The following applies: CHO or HEK cell membranes, 1 h room temperature. In a few lines:
(§2)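 Membranes from CHO or HEK cells expressing the human receptor, incubated 1 h at room temperature with […] [125I]orexin A and compound in HEPES pH 7.5 buffer with BSA, MgCl2, CaCl2 and tween.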

The target in experiment [3] is T1, human orexin 2 receptor (hOx2R). In words: Radioligand binding assay ([125I]orexin A competition), hOx2R. Conditions: CHO or HEK cell membranes, 1 h room temperature. In a few lines: as §2
Experiment [4] concerns the target T2, human orexin 1 receptor (hOx1R). In words: Calcium accumulation in cells (FLIPR), antagonism of orexin A, hOx1R. Conditions: for Kd: cells expressing human orexin 1 receptor, IC50 vs orexin A converted by Cheng and Prusoff correction; for inhibition at 10 µM: measured at a concentration of 10 μM of compound (cells marked ^a). Format: cell-based. In a few lines: as §1

Each structure is given as a SMILES string. A value given as a limit tells only on which side of the number the result lay.

In general, Kd refers to the concentration at which binding is half-saturated. In the case of `CN(C(=O)c1cccc2ccccc12)[C@H](CCNC(=O)c1nc2ccccc2n1C)Cc1ccc(Cl)cc1` [Example 26, 1-Methyl-1H-benzoimidazole-2-carboxylic acid {(S)-4-(4-chloro-phenyl)-3-[methyl-(naphthalene-1-carbonyl)-amino]-butyl}-amide], the Kd was 10 nM in experiment [1], 3280 nM in experiment [2], 308 nM in experiment [3] and 122 nM in experiment [4].

Turning to `CN(C(=O)c1ccc2c(c1)OCC2)[C@H](CCNC(=O)c1cccn1C)Cc1ccccc1` [Example 117, 1-Methyl-1H-pyrrole-2-carboxylic acid {(S)-3-[(2,3-dihydro-benzofuran-6-carbonyl)-methyl-amino]-4-phenyl-butyl}-amide], the Kd in experiment [1] was 65 nM; in experiment [2] it was 444 nM; in experiment [3], 81 nM; in experiment [4], 987 nM.

As a reminder, the inhibition is the relative decrease from the control value, in per cent. With `CN(C(=O)c1ccc2c(c1)OCO2)[C@H](CCNC(=O)c1ccccn1)Cc1ccc(F)cc1` [Example 51, Pyridine-2-carboxylic acid [(S)-3-[(benzo[1,3]dioxole-5-carbonyl)-methyl-amino]-4-(4-fluoro-phenyl)-butyl]-amide], the equilibrium dissociation constant (Kd) in experiment [1] was 794 nM; in experiment [2], 3540 nM; in experiment [3], 1150 nM. Also, the inhibition at 10 µM in experiment [4] was found to be 16%.

For the compound `CN(C(=O)c1ccc2ccccc2c1)[C@H](CCNC(=O)c1ccccn1)Cc1ccc(Cl)cc1` [Example 53, Pyridine-2-carboxylic acid {(S)-4-(4-chloro-phenyl)-3-[methyl-(naphthalene-2-carbonyl)-amino]-butyl}-amide], the dissociation constant Kd was determined as 748 nM in experiment [1], 3410 nM in experiment [2] and 1460 nM in experiment [3]. For the same compound, in experiment [4], the inhibition at 10 µM is 13%.

As for `CN(C(=O)c1cccc2ccccc12)[C@H](CCNC(=O)c1ccccn1)Cc1ccc(F)cc1` [Example 28, Pyridine-2-carboxylic acid {(8)-4-(4-fluoro-phenyl)-3-[methyl-(naphthalene-1-carbonyl)-amino]-butyl}-amide], the Kd in experiment [1] was found to be 4 nM; in experiment [2], 579 nM; in experiment [3] it was 371 nM; in experiment [4] it was 28 nM.

On to `CN(C(=O)c1ccccc1)[C@@H](CCNC(=O)c1ccccn1)Cc1ccccc1` [Example 68, Pyridine-2-carboxylic acid [(R)-3-(benzoyl-methyl-amino)-4-phenyl-butyl]-amide], for which the equilibrium dissociation constant (Kd) in experiment [1] was 2370 nM; in experiment [2], greater than 10000 nM; in experiment [3], 7530 nM; in experiment [4] it was 3580 nM.

In the case of `CN(C(=O)c1ccc2c(c1)CCN2)[C@H](CCNC(=O)c1ccccn1)Cc1ccccc1` [Example 23, 2,3-Dihydro-1H-indole-5-carboxylic acid {(S)-1-benzyl-3-[(pyridine-2-carbonyl)-amino]-propyl}-methyl-amide], the dissociation constant (Kd) in experiment [1] turned out to be 419 nM; in experiment [2] it was 52 nM; in experiment [3], 265 nM; in experiment [4], 152 nM.

As to `CN(C(=O)c1ccc2c(c1)OCO2)[C@H](CCNC(=O)c1ccc2c(c1)OCO2)Cc1ccccc1` [Example 62, Benzo[1,3]dioxole-5-carboxylic acid {(S)-3-[(benzo[1,3]dioxole-5-carbonyl)-amino]-1-benzyl-propyl}-methyl-amide], the Kd in experiment [1] was found to be 22 nM; in experiment [2], 222 nM; in experiment [3], 47 nM; in experiment [4], 872 nM.

`Cc1nc(C(=O)NCC[C@H](Cc2ccccc2)N(C)C(=O)c2ccccc2)c(-c2ccccc2F)s1` [Example 27, 5-(2-Fluoro-phenyl)-2-methyl-thiazole-4-carboxylic acid [(S)-3-(benzoyl-methyl-amino)-4-phenyl-butyl]-amide]: the equilibrium dissociation constant (Kd) in experiment [1] is 11 nM; in experiment [2] it was 783 nM; in experiment [3] it was 337 nM; in experiment [4], 76 nM.

For the compound `CN(C(=O)c1ccc(C(F)(F)F)c(C(F)(F)F)c1)[C@H](CCNC(=O)c1ccccn1)Cc1ccccc1` [Example 77, Pyridine-2-carboxylic acid {(8)-3-[(3,4-bis-trifluoromethyl-benzoyl)-methyl-amino]-4-phenyl-butyl}-amide], the Kd in experiment [1] was 581 nM; in experiment [2], 8420 nM; in experiment [3] it was 3710 nM. For the same compound, the inhibition at 10 µM in experiment [4] is 25%.

With `Cc1cc(C)cc(C(=O)N(C)[C@H](CCNC(=O)c2cccn2C)Cc2ccccc2)c1` [Example 125, 1-Methyl-1H-pyrrole-2-carboxylic acid {(S)-3-[(3,5-dimethyl-benzoyl)-methyl-amino]-4-phenyl-butyl}-amide], the Kd in experiment [1] is 2 nM; in experiment [2] it was 176 nM; in experiment [3], 7 nM; in experiment [4] it was 230 nM.

Regarding `CN(C(=O)c1ccc2ccccc2c1)[C@H](CCNC(=O)c1nc2ccccc2n1C)Cc1ccc(Cl)cc1` [Example 50, 1-Methyl-1H-benzoimidazole-2-carboxylic acid {(S)-4-(4-chloro-phenyl)-3-[methyl-(naphthalene-2-carbonyl)-amino]-butyl}-amide], the Kd amounted to 59 nM in experiment [1], 783 nM in experiment [2], 1110 nM in experiment [3] and 32 nM in experiment [4].

Turning to `Cc1cc(F)cc(C(=O)N(C)[C@H](CCNC(=O)c2cccn2C)Cc2ccccc2)c1` [Example 124, 1-Methyl-1H-pyrrole-2-carboxylic acid {(S)-3-[(3-fluoro-5-methyl-benzoyl)-methyl-amino]-4-phenyl-butyl}-amide], the dissociation constant Kd in experiment [1] came to 13 nM; in experiment [2], 599 nM; in experiment [3], 39 nM; in experiment [4] it was 710 nM.

For the compound `CN(C(=O)c1ccc2ccccc2c1)[C@H](CCNC(=O)c1ccccn1)Cc1ccccc1` [Example 21, Pyridine-2-carboxylic acid {(S)-3-[methyl-(naphthalene-2-carbonyl)-amino]-4-phenyl-butyl}-amide], the Kd in experiment [1] came to 174 nM; in experiment [2], 62 nM; in experiment [3], 203 nM; in experiment [4], 70 nM.

Turning to `CN(C(=O)c1ccccc1)[C@H](CCNC(=O)c1ccnc2ccccc12)Cc1ccccc1` [Example 2, Quinoline-4-carboxylic acid [(S)-3-(benzoyl-methyl-amino)-4-phenyl-butyl]-amide], the inhibition at 10 µM in experiment [1] (measured at a concentration of 10 μM of compound (cells marked ^a)) amounted to 19%; in experiment [4] it was 4%. Further, the Kd in experiment [2] was greater than 10000 nM; in experiment [3] it was 4970 nM.

Turning to `COc1ccc(C(=O)N(C)[C@H](CCNC(=O)c2nc3ccccc3n2C)Cc2ccccc2)cc1OC` [Example 80, 1-Methyl-1H-benzoimidazole-2-carboxylic acid {(S)-3-[(3,4-dimethoxy-benzoyl)-methyl-amino]-4-phenyl-butyl}-amide], the Kd stood at 97 nM in experiment [1], 59 nM in experiment [2], 98 nM in experiment [3] and 541 nM in experiment [4].

As to `CN(C(=O)c1cccc2[nH]ccc12)[C@H](CCNC(=O)c1nc2ccccc2n1C)Cc1ccccc1` [Example 3, 1-Methyl-1H-benzoimidazole-2-carboxylic acid {(S)-3-[(1H-indole-4-carbonyl)-methyl-amino]-4-phenyl-butyl}-amide], the equilibrium dissociation constant (Kd) in experiment [1] was 3 nM; in experiment [2], 17 nM; in experiment [3], 10 nM; in experiment [4] it was 48 nM.

As for `CCCCC(=O)NCCC(Cc1ccccc1)N(C)C(=O)c1cc(C(F)(F)F)cc(C(F)(F)F)c1` (stereo not shown) [Example 39, N-(1-Benzyl-3-pentanoylamino-propyl)-N-methyl-3,5-bis-trifluoromethyl-benzamide], the Kd in experiment [1] is 419 nM; in experiment [2], greater than 10000 nM; in experiment [3] it was 610 nM. Moreover, the inhibition at 10 µM in experiment [4] was found to be 0%.

Consider `CN(C(=O)c1cccc2c1OCC2)[C@H](CCNC(=O)c1ccccn1)Cc1ccccc1` [Example 46, Pyridine-2-carboxylic acid {(8)-3-[(2,3-dihydro-benzofuran-7-carbonyl)-methyl-amino]-4-phenyl-butyl}-amide], for which the dissociation constant Kd stood at 1000 nM in experiment [1], 397 nM in experiment [2], 870 nM in experiment [3] and 1830 nM in experiment [4].
